Measured values as given in PubChem BioAssay AID1918938 (Molecular Pharmacology Branch, DTP, NCI, 2023).

System: 556581-035-R-J1-PDC complex spheroid viability
Assay: Anticancer human tumor 556581-035-R-J1-PDC patient-derived ovarian carcinoma cell line growth inhibition
Conditions: for IC50: curve of first compound; for viability, T/C: stronger effect = lower value
Outline: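 Drug combinations with the LSD1 inhibitor iadademstat tested on tumor cells co-cultured as spheroids with endothelial cells and mesenchymal stem cells. Concentrations descended in half-log increments from clinical Cmax or 10 microM.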
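Note: spheroids exposed to agents for seven days.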
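Throughout, for viability, T/C: 100% = DMSO vehicle control wells.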

**Q.** How did the IC50 (second compound 0.1 µM) turn out when `COc1cc(Nc2ncc3c(n2)-c2ccc(Cl)cc2C(c2c(F)cccc2OC)=NC3)ccc1C(=O)O` + NC1CCC(NC2CC2c2ccccc2)CC1 was run?
**A.** 360 nM

**Q.** And the IC50 (second compound 0.316 µM)?
**A.** 307 nM

**Q.** And the IC50 (second compound 1 µM)?
**A.** 253 nM

**Q.** What about the IC50 (second compound 3.16 µM) of the same compound?
**A.** 213 nM

**Q.** And the IC50 (second compound 10 µM)?
**A.** 143 nM

**Q.** And the viability, T/C (second compound 0.1 µM, first compound 0.00316 µM)?
**A.** 67.5%

**Q.** What about the viability, T/C (second compound 0.1 µM, first compound 0.01 µM) of the same compound?
**A.** 59.8%

**Q.** What about the viability, T/C (second compound 0.1 µM, first compound 0.0316 µM) of the same compound?
**A.** 58.4%

**Q.** What about the viability, T/C (second compound 0.1 µM, first compound 0.1 µM) of the same compound?
**A.** 56.1%

**Q.** And the viability, T/C (second compound 0.1 µM, first compound 0.316 µM)?
**A.** 54.9%

**Q.** And the viability, T/C (second compound 0.1 µM, first compound 1 µM)?
**A.** 38.6%

**Q.** And the viability, T/C (second compound 0.316 µM, first compound 0.00316 µM)?
**A.** 65.1%

**Q.** What about the viability, T/C (second compound 0.316 µM, first compound 0.01 µM) of the same compound?
**A.** 67.8%

**Q.** And the viability, T/C (second compound 0.316 µM, first compound 0.0316 µM)?
**A.** 63.9%

**Q.** And the viability, T/C (second compound 0.316 µM, first compound 0.1 µM)?
**A.** 55%

**Q.** What about the viability, T/C (second compound 0.316 µM, first compound 0.316 µM) of the same compound?
**A.** 50.1%

**Q.** What about the viability, T/C (second compound 0.316 µM, first compound 1 µM) of the same compound?
**A.** 39.3%

**Q.** And the viability, T/C (second compound 1 µM, first compound 0.00316 µM)?
**A.** 62.3%

**Q.** What about the viability, T/C (second compound 1 µM, first compound 0.01 µM) of the same compound?
**A.** 60.6%

**Q.** And the viability, T/C (second compound 1 µM, first compound 0.0316 µM)?
**A.** 57%

**Q.** What about the viability, T/C (second compound 1 µM, first compound 0.1 µM) of the same compound?
**A.** 57.2%

**Q.** What about the viability, T/C (second compound 1 µM, first compound 0.316 µM) of the same compound?
**A.** 46.9%

**Q.** What about the viability, T/C (second compound 1 µM, first compound 1 µM) of the same compound?
**A.** 41.4%

**Q.** And the viability, T/C (second compound 3.16 µM, first compound 0.00316 µM)?
**A.** 66.5%

**Q.** What about the viability, T/C (second compound 3.16 µM, first compound 0.01 µM) of the same compound?
**A.** 66.4%

**Q.** And the viability, T/C (second compound 3.16 µM, first compound 0.0316 µM)?
**A.** 61.4%

**Q.** And the viability, T/C (second compound 3.16 µM, first compound 0.1 µM)?
**A.** 49%

**Q.** And the viability, T/C (second compound 3.16 µM, first compound 0.316 µM)?
**A.** 53%

**Q.** What about the viability, T/C (second compound 3.16 µM, first compound 1 µM) of the same compound?
**A.** 35.3%

**Q.** And the viability, T/C (second compound 10 µM, first compound 0.00316 µM)?
**A.** 58.6%

**Q.** And the viability, T/C (second compound 10 µM, first compound 0.01 µM)?
**A.** 54.6%

**Q.** What about the viability, T/C (second compound 10 µM, first compound 0.0316 µM) of the same compound?
**A.** 58.5%

**Q.** What about the viability, T/C (second compound 10 µM, first compound 0.1 µM) of the same compound?
**A.** 50.3%

**Q.** What about the viability, T/C (second compound 10 µM, first compound 0.316 µM) of the same compound?
**A.** 46%

**Q.** And the viability, T/C (second compound 10 µM, first compound 1 µM)?
**A.** 36.8%
